Results on 63 molecules are retold here after a melting point compilation (Tetko et al.; mined from patent text by program, amines drawn as free bases though some values may be those of a salt).

What is called melting point is the temperature of the solid-liquid transition.

In turn, `CCOC(=O)c1ccc(SCC)c(-c2cc(C)no2)c1C` yielded a melting point of 39 to 40 °C.

The molecule `Cc1ccc(NCCOS(C)(=O)=O)c([N+](=O)[O-])c1` showed a melting point of 65 to 67 °C.

`O=C(Nc1ccccn1)c1c(OC(F)F)ccc2oc3ccc(C(F)(F)F)cc3c12` displayed a melting point of 169 to 170 °C.

In turn, `CCCCCCCCCCCCCCCCCCOc1cc(N)cc(NC(C)=O)c1` yielded a melting point of 115 to 117 °C.

In turn, `C#Cc1ccc2ncsc2c1` registered a melting point of 47.5 to 49 °C.

Molecule `COC(=O)CCc1oc(Sc2ccc(O)cc2)nc1-c1ccccc1` yielded a melting point of 157 to 158 °C.

`O=C(O)c1cn(C2CC2)c2c(F)c(N3CCC3)c(F)cc2c1=O` registered a melting point of 289 to 293 °C.

Turning to `COc1ccc(C2=NN(C3CCN(C(=O)NC(C)(C)C)CC3)C(=O)CC2)cc1OC`, the melting point was in the range of 76 to 78 °C.

Molecule `Cc1c(CC(=O)O)cc2ccc(F)cc2c1Cc1ccc(S(=O)(=O)C(F)(F)F)cc1` registered a melting point of 200 to 201 °C.

The molecule `CC(=O)N1CCC(C(=O)N(CCCN2CC3CN(C(=O)c4c(C)ccnc4C)CC3C2)c2ccc(C)c(Cl)c2)CC1` (stereo not drawn) showed a melting point of 81.5 to 83.6 °C.

`CSc1nc(=O)n(CCO)cc1F` registered a melting point of 161 to 162 °C.

For the molecule `CN1CCC(c2cccc3ccc(-n4cnc5ncccc54)cc23)CC1`, the melting point was 118 to 120 °C.

As to `CC1=C(C(=O)OC(CN2CCCCC2)c2ccccc2)C(c2cccc([N+](=O)[O-])c2)n2ccnc2N1` (stereo not drawn), the melting point was 205 to 206 °C.

Regarding `CC(C)(C)c1ccc(C(=O)Nc2cn3nc(-n4cnc(Cl)c4Cl)ccc3n2)cc1`, the melting point is 281 to 282 °C.

For the molecule `CNC(=O)Oc1ccc(NC=O)c2c1CCCC2`, the melting point is 165 to 166 °C.

In turn, `O=C1CCCc2c1c1cc(F)ccc1n2Cc1ccc(F)cc1` gave a melting point of 182 to 183 °C.

For the molecule `Cc1cc(-c2cc(C(F)(F)F)n3ncc(C(=O)Nc4cccc(S(=O)(=O)N5CCOCC5)c4)c3n2)ccc1Cl`, the melting point was found to be 251 °C.

`COC(=O)c1c[nH]c2ccc(N)cc12` had a melting point of 217 to 219 °C.

The molecule `CCS(=O)(=O)c1ccc(C2=C(c3ccc(S(C)(=O)=O)cc3)OC(C)(C)C2=O)cc1` displayed a melting point of 198 to 203 °C.

For the molecule `CCOC(=O)NNC(=O)NC1c2ccccc2Oc2ccccc21`, the melting point was in the range of 188 to 191 °C.

As to `CCSc1cc2ccccc2c(=O)n1Cc1ccccc1`, the melting point fell in the range of 79 to 80 °C.

Molecule `CCCCCCCCCCCCCCCCCCNS(N)(=O)=O` gave a melting point of 105 to 107 °C.

`O=C(NOC1CCCCO1)c1ccccc1` (stereo not drawn) yielded a melting point of 130 to 134 °C.

For the molecule `CCOC(=O)C1CCC(c2ccccc2)n2c(=O)n(CCl)c(=O)n21` (stereo not drawn), the melting point was 104 to 106 °C.

`Cc1cc(C2=Nn3cc(C(F)(F)F)nc3SC2c2ccc(F)cc2)cc2c1OCC(=O)N2` (stereo not drawn) registered a melting point of 136 to 138 °C.

Molecule `Ic1ccc2c(c1)ncn2-c1cccc(-c2cncnc2)c1` displayed a melting point of 197 to 199 °C.

`CC(C)n1c(=O)[nH]oc1=O` gave a melting point of 150 °C.

For the molecule `CN1CCN(c2ccc3cc(Cl)ccc3n2)CC1`, the melting point is 141 to 142 °C.

In turn, `C=C(C)c1ccc2c(c1)Cc1ccccc1O2` yielded a melting point of 62 to 64 °C.

Turning to `CC1CN(c2cccc(C(F)(F)F)c2)N=C1NC(=O)C(F)(F)F` (stereo not drawn), the melting point was in the range of 121 to 122 °C.

With `CC(C)(C)C#CC(O)C#CC(C)(C)C`, the melting point fell in the range of 67 to 70 °C.

Turning to `COC(=O)c1ccc(NC(C)=O)c([N+](=O)[O-])c1`, the melting point lay within 123 to 124 °C.

For `Cc1cc(Oc2ccc([N+](=O)[O-])cc2)c2ncccc2c1`, the melting point was 143 °C.

`CCCN(CCCN1CCN(c2cccc(Cl)c2Cl)CC1)C1CCc2ncsc2C1` (stereo not drawn) showed a melting point of 110 °C.

Molecule `O=C(O)c1ccc2nc(-c3ccc(F)cc3)[nH]c(=O)c2c1` came in with a melting point of 397 to 399 °C.

Regarding `CC(C(=O)O)c1ccc2c(c1)C(=O)Cc1cc(Cl)ccc1S2` (stereo not drawn), the melting point is 195 to 196 °C.

`CC(C)(C)OC(=O)NCCNC(=O)Nc1ccccc1C(=O)NC1CCN(C(c2ccccc2)c2ccccc2)CC1` gave a melting point of 226 to 228 °C.

Regarding `COc1cc(OC(C)C)cc2oc(Sc3ccc(O)cc3)cc(=O)c12`, the melting point lay within 263 to 265 °C.

In turn, `NC(=O)CN1CC[C@H](OCc2cc(C(F)(F)F)cc(C(F)(F)F)c2)[C@H](c2ccccc2)C1` (relative stereo) had a melting point of 123 to 125 °C.

For the molecule `COCS(=O)(=O)[C@H](C)[C@](O)(Cn1cncn1)c1ccc(F)cc1F`, the melting point lay in the range of 102 to 103 °C.

Turning to `CN1C(=O)CCC2(C)C3CCC4(C)C(OCC(=O)O)CCC4C3CCC12` (stereo not drawn), the melting point fell in the range of 180 to 184 °C.

As to `CC1(CNc2ccccc2)SC2C(NC(=O)Cc3ccccc3)C(=O)N2C1C(=O)O` (stereo not drawn), the melting point was found to be 120 °C.

`CC(C)(C)c1cc(-n2nc3ccc(S(=O)(=O)c4ccc5nn(-c6cc(C(C)(C)C)cc(C(C)(C)C)c6O)nc5c4)cc3n2)c(O)c(C(C)(C)C)c1` had a melting point greater than 300 °C.

Consider `Cc1ncc(C(O)=S)cc1OC1CCCC1`, for which the melting point was 177 to 178 °C.

As to `COC(=O)NN=Cc1ccc([N+](=O)[O-])cc1`, the melting point is 212 to 213 °C.

In turn, `OCc1cc2c(Oc3ccc(Cl)cc3)cncc2s1` came in with a melting point of 90 to 91 °C.

Molecule `O=[N+]([O-])c1ccc(Cl)cc1OCC=Cc1ccccc1` yielded a melting point of 74.5 to 75.5 °C.

`CN=C(NS(=O)(=O)c1ccc(C)cc1)N1CCc2nc(N)sc2C1` displayed a melting point of 206 to 208 °C.

`CC1(C)C=C(C(=O)c2ccc3c(c2)CCN(C(N)=O)C3)C(C)(C)CC1` yielded a melting point of 78.6 to 79.7 °C.

The molecule `COc1cc(OC)nc(C2(OC(C)=O)OC(=O)c3c(Cl)cccc32)n1` (stereo not drawn) registered a melting point of 213 to 215 °C.

`NC(=O)c1cc2c(cc1OCC1CCCCC1)OCCC[C@@H]2N` came in with a melting point of 145 to 146 °C.

As to `CC(c1ccc2[nH]c(C(F)(F)F)nc2c1)n1ccnc1` (stereo not drawn), the melting point came out at 165 °C.

With `CC(=NOCc1cc(C(F)(F)F)ccc1C(F)(F)F)c1cc(Cl)ccc1NS(=O)(=O)C(F)(F)F`, the melting point was in the range of 73 to 75 °C.

For the molecule `CCOc1cc(N)c([N+](=O)[O-])cc1C(=O)OC`, the melting point is 210 °C.

The molecule `C[C@H](C/C=C/C=C/C(C)(C)O)[C@H]1CC[C@H]2[C@@H](O)CCC[C@]12C` registered a melting point of 110 to 112 °C.

Molecule `COc1ccc(-n2ccnc2)cc1C(O)c1c(C)cc(C)cc1C` (stereo not drawn) registered a melting point of 187 to 188 °C.

For the molecule `C/C(Cn1oc(=O)[nH]c1=O)=C(\C)c1cccc(OCc2nc(-c3ccc(C(F)(F)F)cc3)oc2C)c1`, the melting point was in the range of 144 to 145 °C.

Consider `Cc1ccc(N2N=C3c4cc(C(C)O)sc4CCC3CC2=O)cc1` (stereo not drawn), for which the melting point was in the range of 129 to 145 °C.

Turning to `CCOC(=O)C1=C(N(C)C)N=C(C)C(C(=O)OCC)C1c1ccccc1C(F)(F)F` (stereo not drawn), the melting point is 87 °C.

The molecule `CCOC(=O)Cc1c(C(=O)OCC)[nH]c(C)c1-c1nc(-c2ccc(OC)cc2)c(-c2ccc(OC)cc2)[nH]1` came in with a melting point of 186 °C.

Molecule `CCOC(=O)c1cc(C#N)ccn1` had a melting point of 170 to 172 °C.

Regarding `CNS(=O)(=O)c1cc(C(=O)NCC2CCCN2CC2CC2)c(OC)cc1N` (stereo not drawn), the melting point lay in the range of 173 to 174 °C.

On to `NC(=O)OCC1COC(C(F)(F)Cl)(C(F)(F)Cl)O1` (stereo not drawn), for which the melting point was 56 to 57 °C.
